Laboratory results taken from PubChem BioAssay (NCI).
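48-hour exposure; five concentrations; linearly interpolated endpoints. At the GI50, growth is halved. TGI: total growth inhibition.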

How the values were obtained:
Assay in all cases: NCI tumour cell line growth inhibition, 48 h
ACHN renal = test system: ACHN renal
HL-60(TB) leukemia = test system: HL-60(TB) leukemia
DLD-1 colon = test system: DLD-1 colon
DMS 114 small cell lung = test system: DMS 114 small cell lung
DMS 273 small cell lung = test system: DMS 273 small cell lung
HOP-18 NSCLC = test system: HOP-18 NSCLC
KM20L2 colon = test system: KM20L2 colon
M19-MEL melanoma = test system: M19-MEL melanoma
SN12K1 renal = test system: SN12K1 renal
SNB-78 CNS = test system: SNB-78 CNS
XF 498 CNS = test system: XF 498 CNS
LXFL 529 NSCLC = test system: LXFL 529 NSCLC
RXF-631 renal = test system: RXF-631 renal
P388 leukemia = test system: P388 leukemia
P388/ADR leukemia = test system: P388/ADR leukemia

| SMILES | TGI (ACHN renal) | TGI (HL-60(TB) leukemia) | other results |
| --- | --- | --- | --- |
| COCCOC(=O)c1c(C)n([O-])c2cc(Cl)c(Cl)cc2[n+]1=O | 29.3 µM | 32 µM |  |
| CN1CCc2[nH]c3ccccc3c2C1 |  | > 100 µM | TGI (DLD-1 colon): > 100 µM; TGI (DMS 114 small cell lung): > 100 µM; TGI (DMS 273 small cell lung): > 100 µM; TGI (HOP-18 NSCLC): > 100 µM; TGI (KM20L2 colon): > 100 µM; TGI (M19-MEL melanoma): > 100 µM; TGI (SN12K1 renal): > 100 µM; TGI (SNB-78 CNS): > 100 µM; TGI (XF 498 CNS): > 100 µM |
| COC1=C(OC)C(=O)C(Cc2c(Cl)nc3sc(C)cn23)=C(C)C1=O | 40 µM |  |  |
| CCCCCCCCCCCCCCCCCCOc1ccccc1CC(=O)OCC[N+]1(C)CCCCC1 | 25.8 µM | 4.36 µM | GI50 (ACHN renal): 5.01 µM; GI50 (HL-60(TB) leukemia): 1.92 µM |
| OC1(c2cccs2)c2cccc(Cl)c2C(O)(c2cccs2)c2c(Cl)cccc21 (centres undefined) | > 100 µM | > 100 µM |  |
| CC(CCN)(CCN)[N+](=O)[O-] | > 100 µM | > 100 µM |  |
| CCCCCCCCCCCCCCCCCCNC(=O)C(N)Cc1ccc(OCc2ccccc2)cn1 (centres undefined) | 56.4 µM | 37.1 µM |  |
| CN1CCOC(c2ccc(Cl)cc2)O1 (centres undefined) | > 100 µM |  |  |
| CN(C)CCCSc1nc2ccccc2[nH]1 | > 100 µM |  |  |
| CN(CCCCCl)P(=O)(OCc1ccc([N+](=O)[O-])o1)OC[C@H]1O[C@@H](n2cc(F)c(=O)[nH]c2=O)C[C@@H]1O (some centres undefined) | > 100 µM | > 23.6 µM |  |
| Cn1c2ccccc2n2c(N=O)c(-c3ccccc3)nc12 | > 100 µM | > 100 µM |  |
| O=C(Nc1ccc(Cl)cc1)c1cc2cc(N=Nc3ccccc3Cl)ccc2oc1=O | > 100 µM | 10.3 µM | TGI (DLD-1 colon): 32.2 µM; TGI (DMS 114 small cell lung): 25 µM; TGI (HOP-18 NSCLC): 96.9 µM; TGI (KM20L2 colon): 46.8 µM; TGI (LXFL 529 NSCLC): 32.5 µM; TGI (M19-MEL melanoma): 53 µM; TGI (SNB-78 CNS): 79.7 µM; TGI (XF 498 CNS): 67.1 µM |
| COc1cc2c(c(O)c1OC)-c1c(cc(OC)c(OC)c1OC)CC(C)C(C)C2 (centres undefined) | > 100 µM | 55.2 µM |  |
| Cc1ccc(S(=O)(=O)n2cc(-c3cc(C(F)(F)F)ccn3)c3cc(Br)ccc32)cc1 | 24.3 µM | > 100 µM |  |
| C=C1c2ccccc2C(=O)c2c1c1c(C(=O)OC)c(O)ccc1n2Cc1ccccc1 | 1.74 µM | 0.857 µM |  |
| CC(C)=CCC/C(C)=C/CC/C(C)=C/CC/C(C)=C/C=C/C=C(\C)CC/C=C(\C)CC/C=C(\C)CCC=C(C)C | 53 µM | 4.96 µM |  |
| O=C([O-])C[n+]1ccccc1 | > 100 µM | > 100 µM |  |
| C=CCN1C(=O)C=C(c2ccccc2)n2ncc3cccc1c32 | > 100 µM | > 100 µM |  |
| O=S1(=O)N=C(SCc2ccccc2)N(c2ccccc2)c2ccncc21 | > 100 µM | > 100 µM |  |
| CCOc1ccc(NC(=O)C(=O)CC(=O)c2sc(NNC(C)=O)nc2C)cc1 | > 100 µM | > 100 µM | TGI (DLD-1 colon): > 100 µM; TGI (DMS 273 small cell lung): > 100 µM; TGI (KM20L2 colon): > 100 µM; TGI (LXFL 529 NSCLC): > 100 µM; TGI (M19-MEL melanoma): > 100 µM; TGI (RXF-631 renal): > 100 µM; TGI (SNB-78 CNS): > 100 µM; TGI (XF 498 CNS): > 100 µM |
| NN(CC(=O)O)CC(=O)O | > 100 µM | > 100 µM |  |
| CCOc1cc(NC(C)=O)ccc1C(=O)NN1C(=O)C(Cl)C1c1ccccc1 (centres undefined) | 29.7 µM | 36.1 µM |  |
| Nc1ncnc2nc[nH]c12 |  | 228 µM | TGI (DLD-1 colon): > 250 µM; TGI (DMS 114 small cell lung): > 250 µM; TGI (DMS 273 small cell lung): > 206 µM; TGI (HOP-18 NSCLC): > 250 µM; TGI (KM20L2 colon): > 250 µM; TGI (M19-MEL melanoma): > 250 µM; TGI (P388 leukemia): > 250 µM; TGI (P388/ADR leukemia): > 250 µM; TGI (SN12K1 renal): > 250 µM; TGI (SNB-78 CNS): > 158 µM; TGI (XF 498 CNS): 20.8 µM |
